Assay results as given in BindingDB's records for PubMed 28741798 (Daiichi Sankyo Co., Ltd).
pIC50: −log10 of the molar value.

Biological target: Histone-lysine N-methyltransferase KMT5B (Homo sapiens, UniProt Q4FZB7)
Test: Inhibition of human SUV420H1 transcript variant 2 using Nucleosomes and [3H]SAM as substrate incubated for 30 mins to 1 hr by HotSpot kinase assay

Chain of Histone-lysine N-methyltransferase KMT5B (Q4FZB7 whole entry): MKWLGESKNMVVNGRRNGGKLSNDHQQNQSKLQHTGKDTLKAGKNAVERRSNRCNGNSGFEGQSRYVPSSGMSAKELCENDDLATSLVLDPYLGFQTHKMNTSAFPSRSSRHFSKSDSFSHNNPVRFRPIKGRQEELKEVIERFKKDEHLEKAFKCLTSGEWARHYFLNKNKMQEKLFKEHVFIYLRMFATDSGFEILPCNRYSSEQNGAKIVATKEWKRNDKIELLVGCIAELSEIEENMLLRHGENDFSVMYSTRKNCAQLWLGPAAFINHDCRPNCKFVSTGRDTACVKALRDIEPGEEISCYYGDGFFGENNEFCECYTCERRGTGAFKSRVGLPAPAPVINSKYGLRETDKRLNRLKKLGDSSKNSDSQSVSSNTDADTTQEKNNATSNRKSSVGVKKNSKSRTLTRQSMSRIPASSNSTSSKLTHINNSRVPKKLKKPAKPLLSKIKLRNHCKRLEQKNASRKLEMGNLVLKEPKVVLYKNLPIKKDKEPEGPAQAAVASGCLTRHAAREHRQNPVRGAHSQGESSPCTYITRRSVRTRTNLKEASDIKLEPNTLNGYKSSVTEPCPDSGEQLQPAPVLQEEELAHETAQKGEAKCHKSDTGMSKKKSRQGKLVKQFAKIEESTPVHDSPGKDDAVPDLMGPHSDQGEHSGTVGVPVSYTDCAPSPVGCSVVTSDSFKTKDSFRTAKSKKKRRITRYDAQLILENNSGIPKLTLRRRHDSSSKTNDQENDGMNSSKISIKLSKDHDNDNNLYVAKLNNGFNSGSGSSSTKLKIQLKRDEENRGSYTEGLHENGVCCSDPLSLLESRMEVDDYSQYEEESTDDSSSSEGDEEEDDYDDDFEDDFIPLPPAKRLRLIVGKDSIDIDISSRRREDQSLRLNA

Structure (SMILES): Cc1cc(C)c(CNC(=O)c2cc(Cl)c3c(c2C)O[C@@](C)([C@H]2CC[C@H](N(C)C)CC2)O3)c(=O)[nH]1 [(2R)-7-chloro-2-[trans-4-(dimethylamino)cyclohexyl]-N-[(4,6-dimethyl-2-oxo-1,2-dihydropyridin-3-yl)methyl]-2,4-dimethyl-1,3-benzodioxole-5-carboxamide (Valemetostat)]
- pIC50: 6.00
